Columns and labels:
KG-1a cells = assay: Cytotoxicity of doxorubicin HCl incorporated in liposome, WST-8, human leukemia cells; type: cell-based; conditions: read-out: 50% growth inhibition concentration (IC50); KG-1a human leukemia cells, 72 hours
Procedure: (§1) KG-1a cells established from an acute myeloid leukemia patient were used as human leukemia cells. KG-1a cells were cultured in RPMI 1640 medium containing 10% fetal bovine serum (hereinafter FBS). MRC5 cells established from normal fibroblastic cells were used as normal human cells, and cultured in MEM medium containing 10% FBS. Cell suspensions were prepared from these cells at the concentration of 10^5 cells/ml and distributed to 96 well plates at 10^4 cells/well. After 24 hours, free doxorubicin HCl, which was not incorporated in liposome (hereinafter free Dox), doxorubicin HCl incorporated in liposome on which sugar was not bonded (hereinafter L-Dox) and doxorubicin HCl incorporated in liposome on which sialyl Lewis X tetrasaccharide was bonded (hereinafter L-Dox-SLX) were added to each well at appropriate concentrations. […] After removing the media containing the anticancer drug, replacing with 100 μl of RPMI 1640 or MEM containing 10% WST-8 and 10% FBS and incubating for 3 hours, the quantitation of cells were carried out by measuring absorbance at 485 nm (using the absorbance at 550 nm as a reference). Kiling activity (%)=100−(absorbance of the well of interest at 485 nm−absorbance of the same well at 550 nm)/(absorbance of the untreated well at 485 nm−absorbance of the untreated well at 550 nm)×100. […]

[1] = blood; tail vein; amount administered 1.4 mg/kg; mice with EAT cancer
Procedure: Ehrlich ascites tumor (EAT) cells (about 2×10^7 cells) were implanted subcutaneously into the right femoral region in male ddY mice (7 weeks of age), and the 50 mice were used in this test after the tumor tissues grew to 50 to 100 cubic mm (after 6 to 8 days).
These mice with cancer were separated into two groups, 25 mice per each group, and the mice in each group were injected with a liposome solution encapsulating having glycolipid type sugar chain and doxorubicin or free doxorubicin solution at a dose of 0.2 ml in tail vein after the tumor implant. Then, at various time intervals, the doxorubicin concentration was measured by fluorescent method (470 nm) in blood and tumor tissue of 5 mice from each group.

MRC5 cells = assay: Cytotoxicity of doxorubicin HCl incorporated in liposome, WST-8, normal human cells; type: cell-based; conditions: read-out: 50% growth inhibition concentration (IC50), 72 hours
Procedure: as §1

[2] = system: Collagen type II induced arthritis (CIA) model; assay: Treatment of RA (CIA) mice by intravenous administration; type: in vivo, DBA/1J mouse
[3] = system: Collagen type II induced arthritis (CIA) model; assay: Treatment of RA (CIA) mice by oral administration; type: in vivo, DBA/1J mouse; conditions: oral 3 times a week, Day 28 to 39; free Pred 100 μg (up to Day 32), liposomes 10 μg per administration
[4] = system: Collagen type II induced arthritis (CIA) model; assay: Determination of suitable dose of predonisolone phosphate in RA (CIA) mice, intravenous; type: in vivo, DBA/1J mouse

| SMILES | IC50 (KG-1a cells) | AUC0→∞ [1] | IC50 (MRC5 cells) | Inflammatory Activity (IA) ([2]; Day 37 and afterward, iv 100 μg per injection, twice a week) | Inflammatory Activity (IA), comparison between groups ([2]; iv twice a week, free Pred 100 μg, liposomes 10 μg per injection) | Inflammatory Activity (IA), comparison between groups [3] | Inflammatory Activity (IA) versus Control ([4]; iv 250 μg per injection, 500 μg per week) | Inflammatory Activity (IA) versus Control ([4]; iv 500 μg per injection, 1000 μg per week) | Dose required to suppress the progression of inflammation ([4]; iv, more than 500 up to 1000 μg/week) |
| --- | --- | --- | --- | --- | --- | --- | --- | --- | --- |
| COc1cccc2c1C(=O)c1c(O)c3c(c(O)c1C2=O)C[C@@](O)(C(=O)CO)C[C@@H]3O[C@H]1C[C@H](N)[C@H](O)[C@H](C)O1.Cl [free Dox, doxorubicin HCl] | 0.18 µM | 130 ± 10 µg·h/mL | 8.4 µM | – | – | – | – | – | – |
| C[C@]12C=CC(=O)C=C1CC[C@@H]1[C@@H]2[C@@H](O)C[C@@]2(C)[C@H]1CC[C@]2(O)C(=O)COP(=O)(O)O [free Pred, predonisolone phosphate] | – | – | – | about 50% | no clear difference from the Control group in IA | no significant difference in IA | No significant difference | no increase in IA was observed and the progression of inflammation was suppressed | > 500 μg/week |

— patent US20070160657A1, “Targeting and intestinal-absorption controlled liposome having sugar chain and therapeutic drug for cancer and diagnostic drug containing the liposome” (National Institute of Advanced Industrial Science, priority 2003, published 2007)
